The structures appear in SMILES notation.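 1) Cells in 96-well plates. 2) Compound, 48 h, 5 concentrations. 3) Linear interpolation between surrounding doses. 4) Unreached endpoint = highest concentration. Abbreviation: GI50, concentration required for 50% inhibition of growth.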 Activity calls are given as the source filed them. Cut-off read from the data, not from the text of the source: active = GI50 up to about 1.1 µM and inactive = higher.

Holding throughout (assay): NCI-60 cell line screen, 48 h
In test [1] the test system is RXF 393.
Test [2] has as its system SK-MEL-2.
Test [3] has as its system TK-10.
The subject of test [4] is IGROV-1.
The subject of test [5] is LOX IMVI.
In test [6] the test system is OVCAR-8.
Test [7] relates to HOP-92.
Test [8] has as its system NCI-H460.
Test [9] has as its system ACHN.
The subject of test [10] is SW-620.
In test [11] the test system is HL-60.
In test [12] the test system is COLO 205.
Test [13] has as its system M14.
Test [14] deals with NCI-H23.
Test [15] has as its system SK-MEL-5.
The test system of test [16] is EKVX.
Test [17] relates to HCC 2998.
The test system of test [18] is MOLT-4.

For `Nc1nc(Cl)cc(NCCCCCCCCCCNc2cc(Cl)nc(N)n2)n1`, the GI50 in test [1] was 13.9 µM (inactive); in [2] it was 4.93 µM (inactive); in [3], 16.5 µM (inactive); in test [4] it was 22.2 µM (inactive); in [5] it was 1.56 µM (inactive); in test [6] it was 12.2 µM (inactive). Further, the GI50 in test [7] is 28.6 µM (inactive); in test [8], 5.96 µM (inactive); in [9], < 0.01 µM (active); in test [10] it was 35.6 µM (inactive); in [11], 2.34 µM (inactive); in [12] it was 24.9 µM (inactive). Moreover, the GI50 in test [13] was 6.44 µM (inactive); in [14] it was 0.415 µM (active); in test [15], 0.0982 µM (active); in test [16] it was 4 µM (inactive); in [17], 22.8 µM (inactive).
For the compound `CC(C)=Cc1cc(C(=O)Nc2ccc(Cl)c(Cl)c2)nc(N)n1`, the GI50 in [1], in [2], in test [3], in test [4], in [5] and in test [6] was > 100 µM (inactive) in each case. Besides, the GI50 in test [7], in test [18], in test [8], in [9], in test [10] and in test [11] was > 100 µM (inactive) throughout. In addition, the GI50 in test [13], in [14], in test [15], in test [16] and in [17] was > 100 µM (inactive) throughout.
On to `CN(C)CC(/C(Cc1ccccc1)=N\NC(=O)c1ccncc1)c1ccccc1` (centres undefined), for which the GI50 in test [1] was 28.7 µM (inactive); in [2], 18.9 µM (inactive); in test [3], 34.2 µM (inactive); in test [4] it was 47.6 µM (inactive); in test [5] it was 30.2 µM (inactive); in test [6] it was 32.8 µM (inactive). Besides, the GI50 in test [7] is 19.2 µM (inactive); in test [9] it was 27.5 µM (inactive); in test [10] it was 35.8 µM (inactive); in test [11], 4.17 µM (inactive); in [12], 30.8 µM (inactive); in test [13], 25.5 µM (inactive). Besides, the GI50 in [14] is 46.8 µM (inactive); in test [15], 19 µM (inactive); in test [16], 23.6 µM (inactive); in test [17], 39.1 µM (inactive).
`O=C1C=Cc2noc3cccc1c23`: the GI50 in test [1] was 2.52 µM (inactive); in [2] it was 7.4 µM (inactive); in test [3], 18.4 µM (inactive); in test [4], 12.9 µM (inactive); in test [5], 3.15 µM (inactive); in [6] it was 2.88 µM (inactive). The GI50 is 2.28 µM (inactive) in [7]; 0.836 µM (active) in test [18]; 2.76 µM (inactive) in test [9]; 4.01 µM (inactive) in test [10]; 1.05 µM (active) in [11]; 17 µM (inactive) in [12]. For the same compound, the GI50 in [13] was 9.08 µM (inactive); in [14] it was 8.97 µM (inactive); in test [15] it was 10.5 µM (inactive); in test [16] it was 3.9 µM (inactive); in test [17], 14.7 µM (inactive).
On to `O=C(/C=C/c1ccccc1O)c1ccc([N+](=O)[O-])cc1`, for which the GI50 is 11 µM (inactive) in test [1]; 19.8 µM (inactive) in test [2]; 26.7 µM (inactive) in test [3]; 12.9 µM (inactive) in test [4]; 15.8 µM (inactive) in test [5]; 15.5 µM (inactive) in [6]. The GI50 in test [7] was 26.6 µM (inactive); in test [18], 22.3 µM (inactive); in test [8], 22.7 µM (inactive); in [9], 11.9 µM (inactive); in [10], 16.6 µM (inactive); in test [11], 16.4 µM (inactive). For the same compound, the GI50 in test [12] is 12.5 µM (inactive); in test [13], 20.9 µM (inactive); in [14], 11.3 µM (inactive); in test [15], 20.1 µM (inactive); in test [16], 10.6 µM (inactive); in test [17] it was 16.5 µM (inactive).
Consider `O=C(OCc1ccccc1)N1N=NC2C3CC(OCc4ccccc4)(OCc4ccccc4)C(O3)C21` (centres undefined), for which the GI50 was 9.64 µM (inactive) in test [1]; 16.3 µM (inactive) in [2]; 49.5 µM (inactive) in test [4]; 15.1 µM (inactive) in test [5]; 12.6 µM (inactive) in test [7]; 5.5 µM (inactive) in test [18]. The GI50 in [8] is 39.9 µM (inactive); in [9], 29.6 µM (inactive); in test [10], 20.6 µM (inactive); in [11], 7.59 µM (inactive); in test [12] it was 23.1 µM (inactive); in test [13], 23.6 µM (inactive). Moreover, the figures for the GI50 in test [14], in test [15] and in [17] were 12.8 µM (inactive), 9.66 µM (inactive) and 27 µM (inactive), respectively.
Consider `O=C(CC1=Nc2nnc(-c3nnc4n3C(=O)C(CC(=O)C3CC3)=N4)n2C1=O)C1CC1`, for which the GI50 in test [1], in test [2], in [3], in test [4], in test [5] and in test [7] was > 100 µM (inactive) each time. The GI50 in test [18], in [8], in test [9], in test [10], in [11] and in test [12] was > 100 µM (inactive) each time. Besides, the GI50 in test [13], in test [14], in test [15] and in test [17] was > 100 µM (inactive) throughout.
For the compound `COc1cc([C@@H]2c3cc4c(cc3[C@@H](OC(=O)c3ccccc3)C3COC(=O)[C@@H]32)OCO4)cc(OC)c1O` (some centres undefined), the GI50 in test [1] is 0.0101 µM (active); in test [2], 0.0104 µM (active); in [3] it was 38.9 µM (inactive); in test [4], 0.0123 µM (active); in test [5], < 0.01 µM (active); in test [6], < 0.01 µM (active). Further, the GI50 is < 0.01 µM (active) in [7]; 0.0413 µM (active) in test [18]; 0.0129 µM (active) in [8]; < 0.01 µM (active) in test [9]; < 0.01 µM (active) in test [10]; < 0.01 µM (active) in [11]. The GI50 is 0.148 µM (active) in [12], 0.0148 µM (active) in test [14], < 0.01 µM (active) in [15] and 0.0345 µM (active) in test [17].
With `CC(=O)OCC(=O)[C@@]1(O)CC[C@H]2[C@@H]3C[C@H](C)C4=CC(=O)C=C[C@]4(C)[C@@]3(F)[C@@H](O)C[C@@]21C`, the GI50 in [1], in [2], in [3], in [4], in [5] and in test [7] was > 100 µM (inactive) throughout. The GI50 in test [18] was 68.7 µM (inactive); in [8] it was > 100 µM (inactive); in test [9], > 100 µM (inactive); in test [10], > 100 µM (inactive); in test [11], > 100 µM (inactive); in [12], > 100 µM (inactive). In addition, the GI50 in test [13], in test [14], in test [15], in test [16] and in test [17] was > 100 µM (inactive) each time.

For the origin of these results see ChEMBL document CHEMBL1201862, “PubChem BioAssay data set” (2004).
